Here are results for one molecule from publication PMC3849192, “A Simple Method for Assessing Free Brain/Free Plasma Ratios Using an In Vitro Model of the Blood Brain Barrier” (PLoS ONE, 2013).

Series [1] in a line: Brain microdialysis, free brain and plasma concentration-time profiles. As to conditions: male, Wistar, sc, rat, 30 µmol/kg s.c., read-out: Cu,br/Cu,pl in microdialysis. The class given is in vivo. As for the experimental part:
Adult male Wistar rats (280–350 g; Harlan, Horst, The Netherlands) were used for the experiments.
Rats were anesthetized using isoflurane 2% and O2. Before the surgery, Fynadine (1 mg/kg s.c.) was administered for analgesia during surgery and recovery. A mixture of Marcaine and adrenaline was used for local anesthesia on the head. Implantation of a microdialysis probe into the brain and a catheter into the right jugular vein was performed in the same surgical procedure. After surgery animals were housed individually (cages 30×30×40 cm), food and water was ad libitum available. Surgery was carried out at least 24 hours before the start of the experiments.
Each animal was placed into a stereotaxic frame (Kopf instruments, USA). A non-metal guide cannula with a MetaQuant probe (MQ 6/4, regenerated cellulose membrane, 4 mm exposed surface, Brainlink, The Netherlands) was implanted with in the prefrontal cortex (PFC), its tip at the following coordinates: AP = 3.4 mm (to bregma), lateral 0.8 mm (to midline), ventral −5.0 mm (to dura) with Toothbar set at −3.3 mm, according to the atlas of Paxinos and Watson (1982). […]
To test whether probe recoveries were sufficiently high to enable quantitative measurements of brain extracellular concentrations in the in vivo microdialysis experiments, each of the compounds was subjected to an in vitro recovery test. […]

The nature of series [2]: Fraction unbound brain (fu,br), brain homogenate equilibrium dialysis. As to conditions: brain homogenate (10%), 1 µM, equilibrium dialysis 18 hrs at 37°C. The method, then:
The degree of brain binding was assessed by equilibrium dialysis. Brain homogenate (10%) was spiked with test compound at 1 µM in triplicate. […] The plate was then placed in a shaker/incubator to equilibrate for 18 hrs at 37°C. […] After the addition of 50 µl of buffer to the brain homogenate samples, 150 µl of acetonitrile was added to each sample. Finally, 50 µl of water was added to all buffer and brain homogenate samples. The plates were centrifuged and the supernatant analyzed by LC-MS/MS.
(In general: In equilibrium dialysis free small molecules cross a membrane that holds back macromolecules.)

Take `CN1CCN(C2=Nc3cc(Cl)ccc3Nc3ccccc32)CC1` [Clozapine]: the Kp at 30 min in series [1] (at 30 min) was found to be 0.04. Besides, the Kp at 240 min in series [1] (at 240 min) stood at 1.71. For the same molecule, the “fubrain (homog.) Mean” value in series [2] is reported as 0.0094.
